In patent US4310590A (priority 1979, dated 1982):
In brackets after ≈: the same amount, converted by molar mass.

Experiments:
Ps. aeruginosa = assay: Serial Dilution Test (Broth Titer Test), antibacterial, Ps. aeruginosa; type: cell-based, Pseudomonas aeruginosa; settings: for SDT, MIC: in vitro serial dilution test, P = Ps. aeruginosa; for MIC: Pseudomonas aeruginosa, read-out: SDT, MIC
Procedure: (§1) Antibacterial and antifungal activity were evaluated by the Serial Dilution Test (Broth Titer Test) wherein a series of broths containing varying dilutions of a test compound and an organism are halved starting with 1:1,000. The values shown represent the maximum dilution in parts per million at which the compound under evaluation renders complete control of the organism. Pseudomonas aeruginosa (P), Staphylococcus aureus (S), and Escherichia coli (E) were the bacterial organisms employed in this test, and the fungi employed were Aspergillus niger (A) and Rhizopus stolonifer (R).
(§2) ^a In vitro serial dilution test (SDT), minimum inhibitory
(§3) concentrations (MIC) against E = E. coli, P = Ps. aeruginosa, S =
(§4) Staphylococcus aureus, A = A. niger, and R = Rhizopus stolonifer are give
(§5) in parts per million of a biocide.

A. niger = assay: Serial Dilution Test (Broth Titer Test), antifungal, A. niger; type: cell-based, Aspergillus niger; settings: in vitro serial dilution test; for MIC: Aspergillus niger, read-out: SDT, MIC
Procedure: as §1, §2, §3, §4, §5

Staphylococcus aureus = assay: Serial Dilution Test (Broth Titer Test), antibacterial, Staphylococcus aureus; type: cell-based; settings: for SDT, MIC: in vitro serial dilution test, S = Staphylococcus aureus; for MIC: Staphylococcus aureus, read-out: SDT, MIC
Procedure: as §1, §2, §3, §4, §5

Rhizopus stolonifer = assay: Serial Dilution Test (Broth Titer Test), antifungal, Rhizopus stolonifer; type: cell-based; settings: in vitro serial dilution test, R = Rhizopus stolonifer; for MIC: read-out: SDT, MIC
Procedure: as §1, §2, §3, §4, §5

E. coli = assay: Serial Dilution Test (Broth Titer Test), antibacterial, E. coli; type: cell-based, Escherichia coli; settings: for SDT, MIC: in vitro serial dilution test, E = E. coli; for MIC: Escherichia coli, read-out: SDT, MIC
Procedure: as §1, §2, §3, §4, §5

Helminthosporium teres = assay: whole plant or invertebrate; type: in vivo; settings: Pyrenophora teres, in Hordeum vulgare; 300 ppm; read-out: Disease Control Level, BH
Plasmopora viticola = assay: whole plant or invertebrate; type: in vivo; settings: for pest or weed control at 300 ppm: read-out: Disease Control Level, GDM
[1] = test system: Puccinia graminis f. sp. tritici; assay: whole plant or invertebrate; type: in vivo, Puccinia graminis f. sp. tritici race 15B-2; settings: Puccinia graminis, read-out: Disease Control Level, WSR
Piricularia oryzae = assay: whole plant or invertebrate; type: in vivo; settings: for Disease Control Level, RB: 150 ppm
Erysiphe polygoni = assay: whole plant or invertebrate; type: in vivo; settings: read-out: Disease Control Level, BPM
Botrytis cinerea = assay: whole plant or invertebrate; type: in vivo; settings: for pest or weed control at 300 ppm: Botrytis cinerea, read-out: Disease Control Level, BOT
Phytophthora infestans = assay: whole plant or invertebrate; type: in vivo; settings: Phytophthora infestans, in Solanum lycopersicum, read-out: Disease Control Level, TLB
[2] = Pyricularia oryzae, read-out: Disease Control Level, RB

Structure (SMILES)	SDT, MIC (Ps. aeruginosa) [PPM]	SDT, MIC (A. niger) [PPM]	SDT, MIC (Staphylococcus aureus) [PPM]	SDT, MIC (Rhizopus stolonifer) [PPM]	SDT, MIC (E. coli) [PPM]	MIC (Ps. aeruginosa) [µg/mL]	pest or weed control at 300 ppm (Helminthosporium teres) [%]	MIC (A. niger) [µg/mL]	MIC (Staphylococcus aureus) [µg/mL]	pest or weed control at 300 ppm (Plasmopora viticola) [%]	pest or weed control at 300 ppm [1] [%]	Disease Control Level, RB (Piricularia oryzae)	pest or weed control at 300 ppm (Piricularia oryzae; [2]) [%]	MIC (Rhizopus stolonifer) [µg/mL]	pest or weed control at 300 ppm (Erysiphe polygoni) [%]	pest or weed control at 300 ppm (Botrytis cinerea) [%]	pest or weed control at 300 ppm (Phytophthora infestans) [%]	MIC (E. coli) [µg/mL]	also measured
Cc1c(SC(=S)N(C)C)sn(-c2ccc(Cl)cc2Cl)c1=O [Example 10]	500	500	500	250	500														
O=c1cc(N2CCCCC2)sn1CCc1ccccc1 [Example 14, 5-Piperidino-2-phenethyl-4-isothiazolin-3-one]						500 (≈ 1730 µM)	50	250 (≈ 867 µM)	500 (≈ 1730 µM)	50	97 to 100	A/E	97 to 100	125 (≈ 433 µM)	50	50	50	500 (≈ 1730 µM)	pest or weed control at 38 ppm [1]: 50%; pest or weed control at 75 ppm [1]: 50%; pest or weed control at 150 ppm [1]: 50%; pest or weed control at 38 ppm (Piricularia oryzae; [2]): 50%; pest or weed control at 75 ppm (Piricularia oryzae; [2]): 97 to 100%
Cc1c(SC(=S)N(C)C)sn(C2CCCCC2)c1=O [Example 11]						500 (≈ 1580 µM)	50	500 (≈ 1580 µM)	500 (≈ 1580 µM)	50	70 to 89		50	250 (≈ 790 µM)	50	50	50	500 (≈ 1580 µM)	
Cc1c(SC(=S)N(C)C)sn(-c2ccc(Cl)cc2)c1=O [Example 9]	500	500	500	250	500							A/A							Disease Control Level, GDM (Plasmopora viticola; 150 ppm): A/E; Disease Control Level, BOT (Botrytis cinerea; 150 ppm): C/C
